These results are taken from patent US20220324835A1 (Nurix Therapeutics, Inc., priority 2018, published 2022).

Test [1] concerns T-cell. Put plainly: IL-2 secretion from T-cells co-stimulated with anti-CD3 and anti-CD28 antibody (Biological Example 2). Particulars: Homo sapiens, T-cell, fold change over baseline, primary human total T-cells, read-out: IL-2 secretion Anti-CD3/Anti-CD28 stimulation; for fold induction at 0.3 µM: 0.3 μM Cbl-b inhibitor; for fold induction at 1 µM: 1 μM Cbl-b inhibitor; for fold induction at 4 µM: 4 μM Cbl-b inhibitor. The class given is cell-based, human. The method in brief: (§1)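 Values are fold-change over baseline: readings (IL-2 release, CD25 staining) from inhibitor-treated T-cells divided against untreated cells […]. No detailed procedure stated.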

For test [2], the system named is T-cell. Put plainly: CD25 cell surface staining on T-cells co-stimulated with anti-CD3 and anti-CD28 antibody (Biological Example 2). The class given is cell-based, human. Particulars: Homo sapiens, T-cell, fold change over baseline, primary human total T-cells, read-out: CD25 staining Anti-CD3/Anti-CD28 stimulation; for fold induction at 0.3 µM: 0.3 μM Cbl-b inhibitor; for fold induction at 1 µM: 1 μM Cbl-b inhibitor; for fold induction at 4 µM: 4 μM Cbl-b inhibitor. The method in brief:
as §1

In test [3] the test system is T-cell. Put plainly: CD25 cell surface staining on T-cells stimulated with anti-CD3 antibody alone (Biological Example 2). The class given is cell-based, human. Particulars: T-cell, fold change over baseline, primary human total T-cells, read-out: CD25 staining Anti-CD3 stimulation; for fold induction at 1 µM: 1 μM Cbl-b inhibitor; for fold induction at 8 µM: 8 μM Cbl-b inhibitor.

The target of another test is Cbl-b (Homo sapiens, UniProt Q13191). Put plainly: Cbl-b activity assay (Cbl-b inhibition assay), TR-FRET of Cbl-b interaction with UbcH5B-Ub. The conditions noted are these: assay buffer with 100 mM NaCl, 60 nM Src kinase; read-out: Cbl-b activity IC50. The class given is biochemical. A digest of the protocol: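 Compound-treated Cbl-b was incubated 1.5 h with Src kinase (60 nM final; 30 nM for asterisked values, which also used 50 mM instead of 100 mM NaCl), 1 mM ATP and 5 mM MgCl2. Binding to fluorescent Ub-loaded UbcH5B (C85K mutant) was then read by TR-FRET after 1 h more.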
Chain of Cbl-b (Q13191 36-427): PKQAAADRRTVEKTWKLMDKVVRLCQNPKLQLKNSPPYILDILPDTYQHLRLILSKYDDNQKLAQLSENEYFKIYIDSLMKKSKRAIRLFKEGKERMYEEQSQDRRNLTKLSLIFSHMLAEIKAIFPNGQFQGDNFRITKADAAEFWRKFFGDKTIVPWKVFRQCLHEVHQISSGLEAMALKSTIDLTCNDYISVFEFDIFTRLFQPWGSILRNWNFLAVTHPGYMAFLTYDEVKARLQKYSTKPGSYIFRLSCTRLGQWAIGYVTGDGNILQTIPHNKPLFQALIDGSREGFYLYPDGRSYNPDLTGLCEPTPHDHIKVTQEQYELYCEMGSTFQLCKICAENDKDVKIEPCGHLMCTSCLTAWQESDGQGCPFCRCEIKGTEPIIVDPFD
On the technique in general: TR-FRET usually uses a lanthanide donor and a delayed reading to cut background.

Molecules are shown by their SMILES. Counter-ions that a name gives are not always drawn. A value given as a limit tells only on which side of the number the result lay.

A word on the IC50: it is the concentration that inhibits the measured activity by half. Regarding `C[C@H](Cc1nncn1C)c1cccc(N2Cc3c(cc(C(=O)N4CC(O)C4)cc3C(F)(F)F)C2=O)c1` [Compound 276, (R)-6-(3-hydroxyazetidine-1-carbonyl)-2-(3-(1-(4-methyl-4H-1,2,4-triazol-3-yl)propan-2-yl)phenyl)-4-(trifluoromethyl)isoindolin-1-one], in the test on T-cell [1], the fold induction at 0.3 µM is 1.01 to 2.5, the fold induction at 1 µM was 2.51 to 5 and the fold induction at 4 µM was over 7.5. In the test with T-cell [2], the fold induction at 0.3 µM is 1.01 to 1.3, the fold induction at 1 µM lay in the range of 1.01 to 1.3 and the fold induction at 4 µM lay within 1.31 to 1.5. Also, in the test with T-cell [3], the fold induction at 1 µM is 0.801 to 1 and the fold induction at 8 µM is over 1. Further, the 50% inhibitory concentration (IC50) on Cbl-b is under 0.1 µM.

With `C[C@H](Cc1nncn1C)c1cccc(N2Cc3c(cc(C(=O)N4CC[C@H](O)C4)cc3C3CC3)C2=O)c1` [Compound 277, 4-cyclopropyl-6-((S)-3-hydroxypyrrolidine-1-carbonyl)-2-(3-((R)-1-(4-methyl-4H-1,2,4-triazol-3-yl)propan-2-yl)phenyl)isoindolin-1-one], in the test on T-cell [1], the fold induction at 0.3 µM fell in the range of 1.01 to 2.5, the fold induction at 1 µM lay within 2.51 to 5 and the fold induction at 4 µM fell in the range of 2.51 to 5. Besides, in the test with T-cell [2], the fold induction at 0.3 µM was in the range of 1.01 to 1.3, the fold induction at 1 µM was in the range of 1.01 to 1.3 and the fold induction at 4 µM was 1.31 to 1.5. In addition, in the test on T-cell [3], the fold induction at 1 µM lay within 0.801 to 1 and the fold induction at 8 µM was over 1. Further, the IC50 on Cbl-b is under 0.1 µM.

In the case of `Cn1cnnc1CC1(c2cccc(N3Cc4c(cccc4C(F)(F)F)C3=O)c2)CC1` [Compound 299, 2-(3-(1-((4-methyl-4H-1,2,4-triazol-3-yl)methyl)cyclopropyl)phenyl)-4-(trifluoromethyl)isoindolin-1-one], in the test on T-cell [1], the fold induction at 0.3 µM was in the range of 2.51 to 5, the fold induction at 1 µM lay within 2.51 to 5 and the fold induction at 4 µM was 5 to 7.5. In the test on T-cell [2], the fold induction at 0.3 µM is under 1, the fold induction at 1 µM fell in the range of 1.01 to 1.3 and the fold induction at 4 µM fell in the range of 1.01 to 1.3. Further, in the test on T-cell [3], the fold induction at 1 µM was over 1 and the fold induction at 8 µM was over 1. Moreover, the IC50 at Cbl-b was under 0.1 µM.

For `Cn1cnnc1CC(C)(C)c1cccc(N2Cc3c(cccc3C(F)(F)F)C2=O)c1` [Compound 300, 2-(3-(2-methyl-1-(4-methyl-4H-1,2,4-triazol-3-yl)propan-2-yl)phenyl)-4-(trifluoromethyl)isoindolin-1-one], in the test on T-cell [1], the fold induction at 0.3 µM fell in the range of 1.01 to 2.5, the fold induction at 1 µM fell in the range of 2.51 to 5 and the fold induction at 4 µM was over 7.5. Also, in the test on T-cell [2], the fold induction at 0.3 µM fell in the range of 1.01 to 1.3, the fold induction at 1 µM fell in the range of 1.01 to 1.3 and the fold induction at 4 µM was in the range of 1.51 to 1.75. In addition, in the test with T-cell [3], the fold induction at 1 µM lay within 0.801 to 1 and the fold induction at 8 µM was over 1. For the same molecule, the IC50 on Cbl-b is under 0.1 µM.

`Cn1cnnc1CC1(c2cccc(N3Cc4c(cccc4C(F)(F)F)C3=O)c2)COC1` [Compound 301, 2-[3-[3-[(4-methyl-1,2,4-triazol-3-yl)methyl]oxetan-3-yl]phenyl]-4-(trifluoromethyl)isoindolin-1-one]: in the test with T-cell [1], the fold induction at 0.3 µM lay within 1.01 to 2.5, the fold induction at 1 µM lay within 2.51 to 5 and the fold induction at 4 µM is over 7.5. Also, in the test on T-cell [2], the fold induction at 0.3 µM was in the range of 1.01 to 1.3, the fold induction at 1 µM fell in the range of 1.01 to 1.3 and the fold induction at 4 µM was in the range of 1.31 to 1.5. Further, in the test with T-cell [3], the fold induction at 1 µM is 0.801 to 1 and the fold induction at 8 µM was over 1. For the same molecule, at Cbl-b, the IC50 is under 0.1 µM.

For `C[C@H](Sc1nncn1C)c1cccc(NC(=O)c2cc3cc(OCC(=O)NCCN)ccc3cn2)c1` [Compound 311, 6-[2-(2-aminoethylamino)-2-oxo-ethoxy]-N-[3-[(1S)-1-[(4-methyl-1,2,4-triazol-3-yl)sulfanyl]ethyl]phenyl]isoquinoline-3-carboxamide hydrochloride], in the test with T-cell [1], the fold induction at 0.3 µM is under 1, the fold induction at 1 µM is under 1 and the fold induction at 4 µM lay within 1.01 to 2.5. For the same molecule, in the test on T-cell [2], the fold induction at 0.3 µM is under 1, the fold induction at 1 µM was under 1 and the fold induction at 4 µM was 1.01 to 1.3. For the same molecule, in the test with T-cell [3], the fold induction at 1 µM was in the range of 0.601 to 0.8 and the fold induction at 8 µM was in the range of 0.601 to 0.8. For the same molecule, the IC50 at Cbl-b was in the range of 0.1 to 0.3 µM.

For `Cc1cnnn1C[C@@H](C)c1cccc(NC(=O)c2cccc(C(F)(F)F)n2)c1` [Compound 312a, (S)-N-(3-(1-(5-methyl-1H-1,2,3-triazol-1-yl)propan-2-yl)phenyl)-6-(trifluoromethyl)picolinamide], in the test with T-cell [1], the fold induction at 0.3 µM lay in the range of 1.01 to 2.5, the fold induction at 1 µM lay within 1.01 to 2.5 and the fold induction at 4 µM was in the range of 2.51 to 5. In the test with T-cell [2], the fold induction at 0.3 µM is under 1, the fold induction at 1 µM was in the range of 1.01 to 1.3 and the fold induction at 4 µM was in the range of 1.01 to 1.3. In addition, in the test with T-cell [3], the fold induction at 1 µM was in the range of 0.601 to 0.8 and the fold induction at 8 µM fell in the range of 0.801 to 1. On Cbl-b, the IC50 lay in the range of 0.1 to 0.3 µM.

As for `C[C@H](Cc1nncn1C)c1cccc(NC(=O)c2n[nH]c3c2CCC3)c1` [Compound 313, (R)-N-(3-(1-(4-Methyl-4H-1,2,4-triazol-3-yl)propan-2-yl)phenyl)-1,4,5,6-tetrahydrocyclopenta[c]pyrazole-3-carboxamide], in the test with T-cell [1], the fold induction at 0.3 µM lay within 1.01 to 2.5, the fold induction at 1 µM lay within 1.01 to 2.5 and the fold induction at 4 µM was 2.51 to 5. Also, in the test with T-cell [2], the fold induction at 0.3 µM fell in the range of 1.01 to 1.3, the fold induction at 1 µM is 1.01 to 1.3 and the fold induction at 4 µM is 1.01 to 1.3. In the test with T-cell [3], the fold induction at 1 µM lay in the range of 0.601 to 0.8 and the fold induction at 8 µM is 0.801 to 1. For the same molecule, the concentration for half-maximal inhibition (IC50) at Cbl-b fell in the range of 0.1 to 0.3 µM.

`C[C@H](Cc1nncn1C)c1cccc(NC(=O)c2nc3c(C4CC4)cccc3[nH]2)c1` [Compound 319, 4-cyclopropyl-N-[3-[(1R)-1-methyl-2-(4-methyl-1,2,4-triazol-3-yl)ethyl]phenyl]-1H-benzimidazole-2-carboxamide]: in the test on T-cell [1], the fold induction at 0.3 µM lay in the range of 1.01 to 2.5, the fold induction at 1 µM fell in the range of 1.01 to 2.5 and the fold induction at 4 µM was in the range of 2.51 to 5. Moreover, in the test with T-cell [2], the fold induction at 0.3 µM lay within 1.01 to 1.3, the fold induction at 1 µM lay within 1.01 to 1.3 and the fold induction at 4 µM was in the range of 1.01 to 1.3. For the same molecule, in the test with T-cell [3], the fold induction at 1 µM lay within 0.601 to 0.8 and the fold induction at 8 µM was 0.801 to 1. Further, the IC50 on Cbl-b lay within 0.1 to 0.3 µM.

For the molecule `C[C@H](Cc1nncn1C)c1cccc(NC(=O)c2cc(C(C)(C)O)cc(C(F)(F)F)n2)c1` [Compound 320, 4-(2-hydroxypropan-2-yl)-N-[3-[(2R)-1-(4-methyl-4H-1,2,4-triazol-3-yl)propan-2-yl]phenyl]-6-(trifluoromethyl)pyridine-2-carboxamide], in the test with T-cell [1], the fold induction at 0.3 µM fell in the range of 1.01 to 2.5, the fold induction at 1 µM was in the range of 2.51 to 5 and the fold induction at 4 µM fell in the range of 5 to 7.5. In the test with T-cell [2], the fold induction at 0.3 µM is 1.01 to 1.3, the fold induction at 1 µM was 1.01 to 1.3 and the fold induction at 4 µM was 1.01 to 1.3. Besides, in the test with T-cell [3], the fold induction at 1 µM lay within 0.801 to 1 and the fold induction at 8 µM is over 1. The IC50 on Cbl-b was in the range of 0.1 to 0.3 µM.

Take `C[C@H](Cc1nncn1C)c1cccc(NC(=O)c2cccc(C(C)(C)C)n2)c1` [Compound 321, (R)-6-(Tert-butyl)-N-(3-(1-(4-methyl-4H-1,2,4-triazol-3-yl)propan-2-yl)phenyl)picolinamide]: in the test with T-cell [1], the fold induction at 0.3 µM lay in the range of 1.01 to 2.5, the fold induction at 1 µM lay within 2.51 to 5 and the fold induction at 4 µM lay in the range of 2.51 to 5. In the test on T-cell [2], the fold induction at 0.3 µM is 1.01 to 1.3, the fold induction at 1 µM was 1.01 to 1.3 and the fold induction at 4 µM was 1.01 to 1.3. Moreover, in the test with T-cell [3], the fold induction at 1 µM was in the range of 0.801 to 1 and the fold induction at 8 µM is over 1. Moreover, on Cbl-b, the IC50 was under 0.1 µM.

Consider `CC1CCc2c1n[nH]c2C(=O)Nc1cccc([C@H](C)Cc2nncn2C)c1` (stereo partly drawn) [Compound 323, 6-Methyl-N-(3-((R)-1-(4-methyl-4H-1,2,4-triazol-3-yl)propan-2-yl)phenyl)-2,4,5,6-tetrahydrocyclopenta[c]pyrazole-3-carboxamide], for which, in the test with T-cell [1], the fold induction at 0.3 µM fell in the range of 1.01 to 2.5, the fold induction at 1 µM was 2.51 to 5 and the fold induction at 4 µM was 5 to 7.5. In addition, in the test on T-cell [2], the fold induction at 0.3 µM is under 1, the fold induction at 1 µM is under 1 and the fold induction at 4 µM is 1.01 to 1.3. For the same molecule, in the test with T-cell [3], the fold induction at 1 µM was in the range of 0.601 to 0.8 and the fold induction at 8 µM was over 1. Further, the IC50 at Cbl-b was in the range of 0.1 to 0.3 µM.
